The results in this text go back to US20250346597A1, “CONDENSED HETEROCYCLIC COMPOUNDS AS INHIBITOR OF DIACYLGLYCEROL KINASES” (BEONE MEDICINES I GMBH, priority 2023, published 2025).

What is called IC50 is the concentration that inhibits the measured activity by half.

One test has as its target DGKζ (Homo sapiens (Human), UniProt Q13574). The experiment in a line: Biochemical DGK IC50 assay (ADP-Glo, lipid micelle substrate), DGKζ. The conditions noted are these: full length DGKζ 0.5 nM, ATP 140 μM, DAG 80 μM. The method, boiled down: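 Full-length human His-TEV-tagged DGKζ, expressed in Sf9 cells and purified, was run at room temperature on DAG/PS lipid micelles in 50 mM HEPES, 10 mM MgCl2, 0.01 mM CaCl2 buffer. After 1 h reaction, ADP formed was detected by ADP-Glo luminescence. IC50s came from inhibition across increasing compound concentrations.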

The target in another test is DGKα (Homo sapiens (Human), UniProt P23743). The experiment in a line: Biochemical DGK IC50 assay (ADP-Glo, lipid micelle substrate), DGKα. Note: full length DGKα 7.5 nM. Particulars: full length DGKα […], ATP 140 μM, DAG 80 μM. The method in brief: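 Full-length human DGKα assayed by ADP-Glo with DAG/PS lipid micelle substrate at room temperature in 50 mM HEPES, 10 mM MgCl2, 0.01% BSA, 0.1 mM Na3VO4, 0.005% Tween-20, 0.01 mM CaCl2.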
Chain of DGKα (P23743 whole entry): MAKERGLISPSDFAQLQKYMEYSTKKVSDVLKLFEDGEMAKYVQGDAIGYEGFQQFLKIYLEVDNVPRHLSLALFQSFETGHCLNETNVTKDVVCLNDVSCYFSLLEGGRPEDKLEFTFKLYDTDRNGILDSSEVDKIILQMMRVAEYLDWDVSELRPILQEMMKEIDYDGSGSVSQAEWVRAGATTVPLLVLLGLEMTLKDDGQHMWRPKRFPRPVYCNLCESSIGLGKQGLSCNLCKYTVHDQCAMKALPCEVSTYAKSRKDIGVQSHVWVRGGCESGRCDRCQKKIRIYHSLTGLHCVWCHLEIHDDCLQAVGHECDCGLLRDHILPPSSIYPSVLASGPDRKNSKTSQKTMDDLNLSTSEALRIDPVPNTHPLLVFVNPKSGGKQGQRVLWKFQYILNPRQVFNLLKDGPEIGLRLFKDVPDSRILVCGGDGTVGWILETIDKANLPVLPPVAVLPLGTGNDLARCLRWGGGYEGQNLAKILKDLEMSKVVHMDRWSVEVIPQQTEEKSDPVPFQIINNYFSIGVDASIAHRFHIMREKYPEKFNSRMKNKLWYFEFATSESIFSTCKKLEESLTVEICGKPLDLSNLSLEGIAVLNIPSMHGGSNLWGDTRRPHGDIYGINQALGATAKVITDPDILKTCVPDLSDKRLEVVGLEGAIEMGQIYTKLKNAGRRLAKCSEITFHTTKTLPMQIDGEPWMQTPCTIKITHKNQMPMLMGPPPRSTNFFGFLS

Chain of DGKζ (Q13574 other isoform, or with tags, fused parts or gaps): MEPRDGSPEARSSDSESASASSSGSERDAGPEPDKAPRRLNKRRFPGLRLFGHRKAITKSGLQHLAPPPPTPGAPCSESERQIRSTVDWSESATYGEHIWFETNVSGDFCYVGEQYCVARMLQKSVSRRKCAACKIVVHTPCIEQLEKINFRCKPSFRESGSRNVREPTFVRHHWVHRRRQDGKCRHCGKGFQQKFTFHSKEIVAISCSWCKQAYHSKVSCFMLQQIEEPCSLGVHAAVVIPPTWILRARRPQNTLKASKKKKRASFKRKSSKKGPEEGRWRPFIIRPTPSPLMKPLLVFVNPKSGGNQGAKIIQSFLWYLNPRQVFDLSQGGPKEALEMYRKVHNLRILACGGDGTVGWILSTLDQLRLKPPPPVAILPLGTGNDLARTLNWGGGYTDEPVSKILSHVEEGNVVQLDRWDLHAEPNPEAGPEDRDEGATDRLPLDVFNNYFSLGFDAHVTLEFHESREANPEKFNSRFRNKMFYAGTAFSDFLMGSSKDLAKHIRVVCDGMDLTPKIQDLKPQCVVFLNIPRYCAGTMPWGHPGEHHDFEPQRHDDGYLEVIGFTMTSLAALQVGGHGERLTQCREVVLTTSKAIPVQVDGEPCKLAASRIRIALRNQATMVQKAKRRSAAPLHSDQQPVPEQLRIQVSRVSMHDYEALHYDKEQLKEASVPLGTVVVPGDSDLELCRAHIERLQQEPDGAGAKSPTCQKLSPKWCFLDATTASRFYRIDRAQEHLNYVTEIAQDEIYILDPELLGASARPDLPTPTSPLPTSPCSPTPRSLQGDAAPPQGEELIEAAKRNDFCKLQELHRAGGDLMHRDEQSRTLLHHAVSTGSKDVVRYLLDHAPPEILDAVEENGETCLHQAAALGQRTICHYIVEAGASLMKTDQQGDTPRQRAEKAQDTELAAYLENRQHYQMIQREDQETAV

For the molecule `CC[C@H]1CN(C(C)c2ccc3ncc(Cl)n3n2)[C@H](CC)CN1c1cc(=O)n(C)c2cn(CC#N)nc12` (single isomer, unassigned) [Compound A167b], the IC50 against DGKζ turned out to be 0.023 µM; against DGKα it was 0.219 µM.
With `CC[C@H]1CN(C(C)c2ccc3ncc(F)n3n2)[C@H](CC)CN1c1cc(=O)n(C)c2cn(CC#N)nc12` (single isomer, unassigned) [Compound A168a], the IC50 at DGKζ worked out at 3.6 µM; on DGKα, 3.41 µM.
In the same order, the values of `CC[C@H]1CN(C(C)c2ccc3ncc(F)n3n2)[C@H](CC)CN1c1cc(=O)n(C)c2cn(CC#N)nc12` (single isomer, unassigned) [Compound A168b] are 0.069 µM and 0.054 µM.
In the same order, the values of `CC[C@H]1CN(C(C)c2ccn3nc(C)c(F)c3c2)[C@H](CC)CN1c1cc(=O)n(C)c2cn(CC#N)nc12` (single isomer, unassigned) [Compound A169a] are 0.211 µM and 3.21 µM.
On to `CC[C@H]1CN(C(C)c2ccn3nc(C)c(F)c3c2)[C@H](CC)CN1c1cc(=O)n(C)c2cn(CC#N)nc12` (single isomer, unassigned) [Compound A169b], for which the IC50 is 9.28 µM at DGKζ and greater than 10 µM against DGKα.
In the case of `CC[C@H]1CN(C(C)c2ccn3nc(C)c(F)c3n2)[C@H](CC)CN1c1nc(=O)n(C)c2cn(CC#N)nc12` (single isomer, unassigned) [Compound A170a], the IC50 against DGKζ and against DGKα was greater than 10 µM in each case.
In the case of `CC[C@H]1CN(C(C)c2ccn3nc(C)c(F)c3n2)[C@H](CC)CN1c1nc(=O)n(C)c2cn(CC#N)nc12` (single isomer, unassigned) [Compound A170b], the IC50 against DGKζ is 0.0525 µM; against DGKα it was 0.109 µM.
On to `CCC(c1ccn2nc(C)cc2n1)N1C[C@H](C)N(c2cc(=O)n(C)c3cn(CC#N)nc23)C[C@H]1CC` (single isomer, unassigned) [Compound A171a], for which the IC50 against DGKζ amounted to 0.116 µM; on DGKα, 0.107 µM.
In the same order, the values of `CCC(c1ccn2nc(C)cc2n1)N1C[C@H](C)N(c2cc(=O)n(C)c3cn(CC#N)nc23)C[C@H]1CC` (single isomer, unassigned) [Compound A171b] are 5.43 µM and 2.69 µM.
As to `CC[C@@H]1CN(c2cc(=O)n(C)c3cn(CC#N)nc23)[C@@H](C)CN1C(C)c1ccn2nc(C)cc2n1` (single isomer, unassigned) [Compound A172a], the IC50 was found to be 0.108 µM on DGKζ and 0.158 µM on DGKα.
In the same order, the values of `CC[C@@H]1CN(c2cc(=O)n(C)c3cn(CC#N)nc23)[C@@H](C)CN1C(C)c1ccn2nc(C)cc2n1` (single isomer, unassigned) [Compound A172b] are greater than 10 µM and 7.83 µM.
In the case of `CC[C@@H]1CN(c2cc(=O)n(C)c3cn(CC#N)nc23)[C@@H](C)CN1[C@@H](C)c1ccn2nc(C)c(F)c2n1` (single isomer, unassigned) [Compound A173a], the IC50 stood at 0.019 µM against DGKζ and 0.168 µM on DGKα.
On to `CC[C@@H]1CN(c2cc(=O)n(C)c3cn(CC#N)nc23)[C@@H](C)CN1[C@H](C)c1ccn2nc(C)c(F)c2n1` (single isomer, unassigned) [Compound A173b], for which the IC50 was 2.95 µM on DGKζ and greater than 10 µM at DGKα.
In the same order, the values of `CC[C@H]1CN(C(C)c2ccc3ncc(Cl)n3n2)[C@H](CC)CN1c1nc(=O)n(C)c2cn(CC#N)nc12` (single isomer, unassigned) [Compound A174a] are 8.85 µM and 6.47 µM.
In the same order, the values of `CC[C@H]1CN(C(C)c2ccc3ncc(Cl)n3n2)[C@H](CC)CN1c1nc(=O)n(C)c2cn(CC#N)nc12` (single isomer, unassigned) [Compound A174b] are 0.0089 µM and 0.053 µM.
In the same order, the values of `CC(c1cc2c(cc1F)OCC(C)(C)O2)N1C[C@H](C)N(c2cc(=O)n(C)c3cn(CC#N)nc23)C[C@H]1C` (single isomer, unassigned) [Compound A179a] are 1.41 µM and 15.9 µM.
As to `CC(c1cc2c(cc1F)OCC(C)(C)O2)N1C[C@H](C)N(c2cc(=O)n(C)c3cn(CC#N)nc23)C[C@H]1C` (single isomer, unassigned) [Compound A179b], the IC50 at DGKζ was 0.323 µM; against DGKα it was 3.19 µM.
Regarding `CC[C@H]1CN(C(C)c2ccc3cnncc3c2)[C@H](CC)CN1c1cc(=O)n(C)c2cn(CC#N)nc12` (single isomer, unassigned) [Compound A186a], the IC50 came out at 0.841 µM against DGKζ and 0.053 µM on DGKα.
In the same order, the values of `CC[C@H]1CN(C(C)c2ccc3cnncc3c2)[C@H](CC)CN1c1cc(=O)n(C)c2cn(CC#N)nc12` (single isomer, unassigned) [Compound A186b] are greater than 10 µM and 1.22 µM.
In the same order, the values of `CC[C@H]1CN(C(C)c2ccc(N)nc2)[C@H](CC)CN1c1cc(=O)n(C)c2cn(CC#N)nc12` (single isomer, unassigned) [Compound A187a] are greater than 10 µM and 1.99 µM.
Take `CC[C@H]1CN(C(C)c2ccc(CN3CCC(OC)CC3)cc2)[C@H](CC)CN1c1cc(=O)n(C)c2cn(CC#N)nc12` (single isomer, unassigned) [Compound A189a]: the IC50 against DGKζ came out at 2.19 µM; on DGKα, 1.08 µM.
In the same order, the values of `CC[C@H]1CN(C(C)c2ccc(CN3CCC(OC)CC3)cc2)[C@H](CC)CN1c1cc(=O)n(C)c2cn(CC#N)nc12` (single isomer, unassigned) [Compound A189b] are 8.54 µM and 11.8 µM.
In the same order, the values of `CC[C@H]1CN(C(C)c2ccc(C(=O)NC)cc2)[C@H](CC)CN1c1cc(=O)n(C)c2cn(CC#N)nc12` (single isomer, unassigned) [Compound A193a] are 2.87 µM and 0.515 µM.
With `CC[C@H]1CN(C(C)c2ccc(C(=O)NC)cc2)[C@H](CC)CN1c1cc(=O)n(C)c2cn(CC#N)nc12` (single isomer, unassigned) [Compound A193b], the values for the IC50 at DGKζ and against DGKα were greater than 10 µM and 6.51 µM, respectively.
Take `CC[C@H]1CN(C(C)c2ccc(C(=O)N3CCC(OC)CC3)cc2)[C@H](CC)CN1c1cc(=O)n(C)c2cn(CC#N)nc12` (single isomer, unassigned) [Compound A194a]: the IC50 on DGKζ came out at 1.45 µM; at DGKα it was 0.291 µM.
In the same order, the values of `CC[C@H]1CN(C(C)c2ccc(C(=O)N3CCC(OC)CC3)cc2)[C@H](CC)CN1c1cc(=O)n(C)c2cn(CC#N)nc12` (single isomer, unassigned) [Compound A194b] are 6.05 µM and 2.53 µM.
In the same order, the values of `CC[C@H]1CN(C(C)c2ccc(C(=O)N(C)CCOC)cc2)[C@H](CC)CN1c1cc(=O)n(C)c2cn(CC#N)nc12` (single isomer, unassigned) [Compound A195a] are 1.41 µM and 0.774 µM.
For the molecule `CC[C@H]1CN(C(C)c2ccc(C(=O)N(C)CCOC)cc2)[C@H](CC)CN1c1cc(=O)n(C)c2cn(CC#N)nc12` (single isomer, unassigned) [Compound A195b], the IC50 against DGKζ is greater than 10 µM; at DGKα, 4.21 µM.
In the same order, the values of `CC[C@H]1CN(C(C)c2ccc(CN3CCC(OC)C3)cc2)[C@H](CC)CN1c1cc(=O)n(C)c2cn(CC#N)nc12` (single isomer, unassigned) [Compound A203a] are 2.69 µM and 1.11 µM.
